Measured values reported in patent US5508311A, “Aliphatic propargylamines as selective MAO-B inhibitors and as neuroprotective agents” (University of Saskatchewan, priority 1993, dated 1996).
Structures can show the parent of a compound that is named as a salt. Where two headings read alike, the source gives them in different places.

Columns and labels:
[1] = biological target: T1, MAO-A (Rattus norvegicus, UniProt P21396); test: biochemical; assay type: biochemical
T1 sequence (P21396 1-526): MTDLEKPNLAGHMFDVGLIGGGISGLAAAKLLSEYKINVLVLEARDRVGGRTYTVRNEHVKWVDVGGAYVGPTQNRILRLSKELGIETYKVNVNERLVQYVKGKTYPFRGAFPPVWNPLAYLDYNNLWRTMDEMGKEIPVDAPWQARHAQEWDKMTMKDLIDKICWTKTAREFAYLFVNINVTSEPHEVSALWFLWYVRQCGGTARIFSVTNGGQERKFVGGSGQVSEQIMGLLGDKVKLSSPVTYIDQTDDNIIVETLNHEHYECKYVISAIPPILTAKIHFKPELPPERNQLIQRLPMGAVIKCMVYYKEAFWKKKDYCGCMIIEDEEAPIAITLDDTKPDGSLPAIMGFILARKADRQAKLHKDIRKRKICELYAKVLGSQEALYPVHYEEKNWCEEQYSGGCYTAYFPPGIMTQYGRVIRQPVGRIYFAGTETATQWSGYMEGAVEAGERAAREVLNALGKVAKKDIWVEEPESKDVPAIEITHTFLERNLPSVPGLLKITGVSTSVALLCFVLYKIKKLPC
Protocol: (§1) The aliphatic propargylamine inhibitors (from 1×10^-10 M to 1×10^-4 M) were preincubated with the MAO for 20 min. at ambient room temperature and then the residual enzyme activities were determined by addition of the substrates, followed by further incubation at 37° C. for 30 min. The enzymatic reactions were terminated by the addition of citric acid and the aldehyde products were extracted with toluene: ethyl acetate (1:1, v/v) and the radio-activities assessed in a scintillation counter.

[2] = biological target: T2, MAO-B (Rattus norvegicus, UniProt P19643); test: biochemical; assay type: biochemical
T2 sequence (P19643 1-520): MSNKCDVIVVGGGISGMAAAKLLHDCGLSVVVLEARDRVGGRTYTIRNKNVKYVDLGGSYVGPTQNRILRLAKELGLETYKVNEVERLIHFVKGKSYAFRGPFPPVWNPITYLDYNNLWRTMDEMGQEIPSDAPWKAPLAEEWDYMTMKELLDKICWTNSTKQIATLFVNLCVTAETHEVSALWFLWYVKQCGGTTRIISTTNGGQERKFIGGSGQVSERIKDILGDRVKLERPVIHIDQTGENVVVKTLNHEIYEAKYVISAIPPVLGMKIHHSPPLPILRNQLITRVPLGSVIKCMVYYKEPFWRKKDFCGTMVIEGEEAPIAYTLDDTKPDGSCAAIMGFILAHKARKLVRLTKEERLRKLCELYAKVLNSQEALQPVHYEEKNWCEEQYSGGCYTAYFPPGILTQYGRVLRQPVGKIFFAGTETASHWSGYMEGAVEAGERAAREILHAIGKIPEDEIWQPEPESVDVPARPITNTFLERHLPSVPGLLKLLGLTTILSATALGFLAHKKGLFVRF
Protocol: as §1

[3] = biological target: T3, MAO-B (Mus musculus, UniProt Q8BW75); test: in vivo; assay type: in vivo; conditions: for ED50: read-out: PE ID50; for Ratio MAO-A/MAO-B: 120 min
T3 construct: MAO activities in the mouse brain after; from tissue
T3 sequence (Q8BW75 1-520): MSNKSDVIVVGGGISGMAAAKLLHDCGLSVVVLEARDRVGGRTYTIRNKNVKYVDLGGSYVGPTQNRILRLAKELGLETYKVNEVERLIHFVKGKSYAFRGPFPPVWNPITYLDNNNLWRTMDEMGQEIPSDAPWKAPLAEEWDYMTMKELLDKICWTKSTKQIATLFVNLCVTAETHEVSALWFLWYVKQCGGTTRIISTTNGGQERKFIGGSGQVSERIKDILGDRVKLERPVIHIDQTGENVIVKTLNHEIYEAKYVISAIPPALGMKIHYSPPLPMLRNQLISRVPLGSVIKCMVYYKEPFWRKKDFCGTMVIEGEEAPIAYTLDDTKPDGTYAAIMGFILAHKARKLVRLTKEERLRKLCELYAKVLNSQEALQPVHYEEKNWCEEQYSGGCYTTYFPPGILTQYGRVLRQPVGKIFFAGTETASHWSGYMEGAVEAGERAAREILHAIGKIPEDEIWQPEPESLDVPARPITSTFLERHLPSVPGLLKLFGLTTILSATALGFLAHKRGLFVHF
Protocol: (§2) Albino Swiss mice were used in this study. The animals were injected intraperitoneally with different doses of the aliphatic propargylamines in 100 μL saline.
(§3) 0.5, 1, 2, 5, 10, 20, 50, 100 mg/Kg. Striata were dissected from the brai
(§4) two hours after i.p. administration of the drugs. MAOA and MAOB activitie
(§5) were determined immediately. The values were estimated from doseresponse

[4] = biological target: T4, MAO-A (Mus musculus, UniProt Q64133); test: in vivo; conditions: ip, read-out: 5-HT ID50
T4 construct: MAO activities in the mouse brain after; from tissue
T4 sequence (Q64133 1-526): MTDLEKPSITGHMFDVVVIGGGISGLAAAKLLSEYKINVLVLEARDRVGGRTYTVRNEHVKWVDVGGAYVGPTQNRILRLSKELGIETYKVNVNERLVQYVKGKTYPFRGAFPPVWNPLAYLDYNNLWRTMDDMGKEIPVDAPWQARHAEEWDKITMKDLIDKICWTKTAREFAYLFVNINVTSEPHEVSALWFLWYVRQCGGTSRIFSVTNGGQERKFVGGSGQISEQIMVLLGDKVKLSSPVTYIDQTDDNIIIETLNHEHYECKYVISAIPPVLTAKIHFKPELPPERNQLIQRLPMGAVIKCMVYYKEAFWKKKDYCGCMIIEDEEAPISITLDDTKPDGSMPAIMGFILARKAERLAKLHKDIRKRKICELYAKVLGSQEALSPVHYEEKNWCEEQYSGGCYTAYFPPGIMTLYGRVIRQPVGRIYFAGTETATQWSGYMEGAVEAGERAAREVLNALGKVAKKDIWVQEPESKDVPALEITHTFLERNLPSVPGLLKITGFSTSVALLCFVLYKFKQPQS
Protocol: as §2, §3, §4, §5

[5] = biological target: T3, MAO-B; test: MAO-B activity in the mouse brain after oral administration (substrate PE); assay type: in vivo; conditions: for Relative activity PE: oral 10 mg/Kg, PE (1.9 × 10^-5 M), mean ± standard error, saline = 100
Protocol: (§6) Table 3 indicates the MAO activities in the mouse brain following oral administration of the aliphatic propargylamines.
(§7) of each compound. Striata were dissected from the brain two hours after
(§8) the administration of the drugs. MAOA and MAOB activities were determined
Striata were dissected from the brain two
hours after oral administration of the drugs. MAOB activities were then
determined immediately. The values were estimated from doseresponse

[6] = biological target: T4, MAO-A; assay type: in vivo
Protocol: as §6, §7, §8

[7] = biological target: monoamine oxidase; test: Inhibition of rat liver monoamine oxidase deamination of dopamine (DA, mixed-type MAO A and B substrate) in vitro; assay type: biochemical; conditions: substrate DA (5 × 10^-4 M), average of at least 3 independent experiments
Protocol: as §1

[8] = substrate 5-HT (5 × 10^-4 M), rat liver MAO, in vitro, average of at least 3 independent experiments
[9] = […], rat liver MAO, in vitro, average of at least 3 independent experiments, read-out: PE IC50
[10] = ID50 i.p. in mice versus IC50 in vitro
[11] = mouse, ip, 2 hours after administration, […], estimated from dose response curves
[12] = 2 hours after administration, 5-HT 5 × 10^-4 M, estimated from dose response curves
[13] = oral 10 mg/Kg, 2 hours, 5-HT (5 × 10^-4 M), mean ± standard error, saline = 100
[14] = substrate PE (1.9 × 10^-5 M), rat liver MAO, in vitro, average of at least 3 independent experiments
[15] = rat, liver mitochondrial membranes

C#CCN(C)CCCCCl.Cl [Cl-1-BuMP, N-(4-Chloro-1-butyl)-N-methylpropargylamine-HCl]
IC50 [1, 8]: > 100000 nM | IC50 [2, 9]: 10000 nM | Ratio MAO-A/MAO-B ([2]; ratio of IC50 values, in vitro): > 10

C#CCN(CC)CCCC.O=C(O)C(=O)O [Example 1-BuEP, N-(1-Butyl)-N-ethylpropargylamine oxalate salt]
5-HT IC50 [1, 8]: inactive | PE IC50 [2]: inactive

C#CCN(C)CCCCCCC.Cl [Example 1-HMP, N-(1-Heptyl)-N-methylpropargylamine hydrochloride]
IC50 [1, 8]: 40000 nM | Ratio MAO-A/MAO-B ([2]; ratio of IC50 values, in vitro): 20 | IC50 ([2]; read-out: PE IC50): 2000 nM | MAO-B ID50 (mg/Kg) / IC50 (1 × 10^-6 M) [3, 10]: 7.5 (mg/Kg)/(1 × 10^-6 M) | ED50 [3, 11]: 15 mg/kg | Ratio MAO-A/MAO-B ([3]; ratio of ID50 values, i.p.): 7 | ED50 [4, 12]: 100 mg/kg | Relative activity PE ([5]; 2 hours): 118 ± 14% | Relative activity 5-HT [6, 13]: 123 ± 16%

C#CCN(CC)C(C)CC (centres unmarked) [Example 2-BuEP, N-(2-Butyl)-N-ethylpropargylamine hydrochloric salt]
5-HT IC50 [1, 8]: inactive | PE IC50 [2, 14]: inactive

C#CCNC(C)CC.Cl (centres unmarked) [Example 2-BuPP, N-(2-Butyl)propargylamine hydrochloride salt]
5-HT IC50 [1, 8]: inactive | PE IC50 [2]: inactive

C#CCN(C)C(C)CCCCCCCC.Cl (centres unmarked) [Example 2-DMP, N-(2-Decyl)-N-methylpropargylamine hydrochloride]
IC50 [1, 8]: 4000 nM | Ratio MAO-A/MAO-B ([2]; ratio of IC50 values, in vitro): 50 | IC50 ([2]; read-out: PE IC50): 200 nM | IC50 [7]: 200 nM | MAO-B ID50 (mg/Kg) / IC50 (1 × 10^-6 M) [3, 10]: 25 (mg/Kg)/(1 × 10^-6 M) | ED50 [3, 11]: 5 mg/kg | Ratio MAO-A/MAO-B ([3]; ratio of ID50 values, i.p.): 7 | ED50 [4, 12]: 35 mg/kg | effectiveness in blocking MAO-B activity in vivo after acute oral administration (in words) ([5]; mouse, oral): less potent at inhibiting MAO-B activity in vivo after acute administration | ED50 ([5]; mouse, oral, 2 hours, average of 5 animals per dose, estimated from dose response curves, read-out: Inhibition of MAO-B activity, dose response (ID50)): 50 mg/kg | Relative activity PE ([5]; 2 hours): 104 ± 7% | Relative activity 5-HT [6, 13]: 97 ± 8%

C#CCN(C)C(C)CCCCCCCCCC.Cl (centres unmarked) [Example 2-DdMP, N-(2-dodecyl)-N-methylpropargylamine-HCl]
IC50 ([1]; read-out: 5-HT IC50): 2000 nM | Ratio MAO-A/MAO-B [2, 15]: 50 | IC50 [2, 14]: 40 nM | IC50 [7]: 300 nM | MAO-B ID50 (mg/Kg) / IC50 (1 × 10^-6 M) ([3]; mouse, in vivo, ip): 100 | Ratio MAO-A/MAO-B ([3]; mouse, in vivo, ip): 15 | ED50 ([3]; mouse, ip, 2 h): 4 mg/kg | ED50 ([4]; 2 h): 60 mg/kg | effectiveness in blocking MAO-B activity in vivo after acute oral administration (in words) ([5]; mouse, oral): less potent at inhibiting MAO-B activity in vivo after acute administration | Relative activity PE ([5]; 2 hours): 64 ± 8% | Relative activity 5-HT ([6]; mouse, in vivo, po, 10 mg/kg): 107 ± 14

C#CCN(C)C(C)CCCCC.Cl (centres unmarked) [Example 2-HMP, N-(2-Heptyl)-N-methylpropargylamine hydrochloride]
IC50 [1, 8]: 20000 nM | Ratio MAO-A/MAO-B [2, 15]: 100 | IC50 ([2]; read-out: PE IC50): 200 nM | IC50 [7]: 300 nM | MAO-B ID50 (mg/Kg) / IC50 (1 × 10^-6 M) ([3]; mouse, in vivo, ip): 2.5 | Ratio MAO-A/MAO-B ([3]; mouse, in vivo, ip): 50 | ED50 ([3]; mouse, ip, 2 h): 0.5 mg/kg | ED50 ([4]; 2 h): 25 mg/kg | Relative activity PE ([5]; 2 hours): 39 ± 4% | Relative activity 5-HT ([6]; mouse, in vivo, po, 10 mg/kg): 99 ± 5

C#CCN(C)C(C)C.Cl [Example 2-PrMP, N-Methyl-N-(2-propyl)propargylamine hydrochloride]
5-HT IC50 [1, 8]: no effect | IC50 [2, 9]: 20000 nM | IC50 [7]: 30000 nM

C#CCCN(C)C(C)CC.O=C(O)C(=O)O (centres unmarked) [Example 3-BuBuM, N-(3-Butynyl)-N-(2-butyl)methylamine oxalate salt]
5-HT IC50 [1, 8]: inactive | PE IC50 [2]: inactive

C#CCN(C)CCCC(=O)O [Example 3-CP-MP, N-(3-Carboxy-1-propyl)-N-methylproparglamine oxalate]
5-HT IC50 [1, 8]: inactive | PE IC50 [2, 14]: inactive | DA IC50 [7]: inactive

C#CCN(C)CCCCCC(=O)OCC.O=C(O)C(=O)O [Example 5-CP1MP, N-(5-carbethoxy-1-pentyl)-N-methylpropargylamine oxalate]
5-HT IC50 [1, 8]: inactive | PE IC50 [2]: inactive | DA IC50 [7]: inactive

C#CCN(C)C(C)CCCC(=O)OCC.Cl (centres unmarked) [Example 5-CP2MP, N-(5-Carbethoxy-2-pentyl)-N-methylpropargylamine-HCl]
5-HT IC50 [1, 8]: inactive | PE IC50 [2]: inactive | DA IC50 [7]: inactive

C#CCN(C)CCCCCCO.Cl [Example 6-OH-Hx1MP, N-(6-Hydroxy-1-hexyl)-N-methylpropargylamine-HCl]
5-HT IC50 [1, 8]: inactive | IC50 [2, 14]: 100000 nM

C#CCN(C)C(CC)CC.O=C(O)C(=O)O [Example M-3-PP, N-Methyl-N-(3-pentyl)propargylamine oxalate]
IC50 [1, 8]: 2000 nM | Ratio MAO-A/MAO-B [2, 15]: 10 | IC50 ([2]; read-out: PE IC50): 200 nM | MAO-B ID50 (mg/Kg) / IC50 (1 × 10^-6 M) [3, 10]: 10 (mg/Kg)/(1 × 10^-6 M) | Ratio MAO-A/MAO-B ([3]; mouse, in vivo, ip): 12 | ED50 [3, 11]: 1 mg/kg | ED50 ([4]; 2 h): 12 mg/kg
